Measurements: the supplement of paper PMC13380429
± gives the standard deviation of the averaged measurements.

Experiments:
Conditions in all cases: 72 h
Vero E6 [1] = assay: drug sensitivity score (DSS) for viability; higher = more toxic; extreme values may be limits of the assay
Caco-2 [2] = assay: as above
U2OS [3] = assay: as above
HepG2 [4] = assay: as above
Vero E6 [5] = assay: relative viability EC50 (midpoint between 100% and the lowest measured viability); higher = less toxic
Caco-2 [6] = assay: as above
U2OS [7] = assay: as above
HepG2 [8] = assay: as above
Vero E6 [9] = assay: cell viability relative to DMSO; higher = less toxic
Caco-2 [10] = assay: as above
U2OS [11] = assay: as above
HepG2 [12] = assay: as above
Calu-3 [13] = assay: drug sensitivity score (DSS) for viability; higher = more toxic; extreme values may be limits of the assay
Calu-3 [14] = assay: cell viability relative to DMSO; higher = less toxic

| SMILES | drug sensitivity score (Vero E6 [1]) | drug sensitivity score (Caco-2 [2]) | drug sensitivity score (U2OS [3]) | drug sensitivity score (HepG2 [4]) | relative viability EC50 (Vero E6 [5]) [µM] | relative viability EC50 (Caco-2 [6]) [µM] | relative viability EC50 (U2OS [7]) [µM] | relative viability EC50 (HepG2 [8]) [µM] | cell viability (Vero E6 [9]; 1 nM) [%] | cell viability (Vero E6 [9]; 10 nM) [%] | cell viability (Vero E6 [9]; 100 nM) [%] | cell viability (Vero E6 [9]; 1000 nM) [%] | cell viability (Vero E6 [9]; 10000 nM) [%] | cell viability (Caco-2 [10]; 1 nM) [%] | cell viability (Caco-2 [10]; 10 nM) [%] | cell viability (Caco-2 [10]; 100 nM) [%] | cell viability (Caco-2 [10]; 1000 nM) [%] | cell viability (Caco-2 [10]; 10000 nM) [%] | cell viability (U2OS [11]; 1 nM) [%] | cell viability (U2OS [11]; 10 nM) [%] | cell viability (U2OS [11]; 100 nM) [%] | cell viability (U2OS [11]; 1000 nM) [%] | cell viability (U2OS [11]; 10000 nM) [%] | cell viability (HepG2 [12]; 1 nM) [%] | cell viability (HepG2 [12]; 10 nM) [%] | cell viability (HepG2 [12]; 100 nM) [%] | cell viability (HepG2 [12]; 1000 nM) [%] | cell viability (HepG2 [12]; 10000 nM) [%] | drug sensitivity score (Calu-3 [13]) | cell viability (Calu-3 [14]; 1 nM) [%] | cell viability (Calu-3 [14]; 10 nM) [%] | cell viability (Calu-3 [14]; 100 nM) [%] | cell viability (Calu-3 [14]; 1000 nM) [%] | cell viability (Calu-3 [14]; 10000 nM) [%] |
| --- | --- | --- | --- | --- | --- | --- | --- | --- | --- | --- | --- | --- | --- | --- | --- | --- | --- | --- | --- | --- | --- | --- | --- | --- | --- | --- | --- | --- | --- | --- | --- | --- | --- | --- |
| C=C1/C(=C\C=C2/CCC[C@]3(C)[C@@H]([C@H](C)OCCC(C)(C)O)CC[C@@H]23)C[C@@H](O)C[C@@H]1O [maxacalcitol] | 0 | 0 | 0 | 0 | > 10 | > 10 | > 10 | > 10 | 109 | 105 | 102 | 100 | 94.6 | 91.9 | 91.3 | 94.1 | 87.8 | 101 | 102 | 103 | 93.5 | 91.6 | 97.4 | 105 | 99.3 | 98.3 | 91.5 | 98.5 | – | – | – | – | – | – |
| N.N.O=C([O-])C[O-].[Pt+2] [nedaplatin] | – | – | – | 0 | – | – | – | – | – | – | – | – | – | – | – | – | – | – | – | – | – | – | – | – | – | – | – | – | – | – | – | – | – | – |
| COc1cc(/C=C(\C#N)C(N)=O)cc(CSc2nc3ccccc3s2)c1O [tyrphostin-AG-825] | 0 | 0 | 0 | 0 | > 10 | > 10 | > 10 | > 10 | 92.6 | 97 | 94.7 | 93.8 | 105 | 102 | 103 | 96.2 | 107 | 96.4 | 94.7 | 99.9 | 97.7 | 96 | 101 | 105 | 92.4 | 103 | 97.3 | 108 | – | – | – | – | – | – |
| O=C(O)CCC(=O)C(=O)O [2-oxoglutaric-acid] | 0 | 0 | 0 | 0 | > 10 | > 10 | > 10 | > 10 | 97.8 | 104 | 98.3 | 104 | 102 | 95.3 | 97.7 | 95 | 94.2 | 91.5 | 98.5 | 99.5 | 95.2 | 98.7 | 99.3 | 97.9 | 94.3 | 91.4 | 98.8 | 105 | – | – | – | – | – | – |
| C/C(=N\NC(=N)N)c1cc(NC(=O)CCCCCCCCC(=O)Nc2cc(/C(C)=N/NC(=N)N)cc(/C(C)=N/NC(=N)N)c2)cc(/C(C)=N/NC(=N)N)c1 [semapimod] | 1.2 | 2.5 | 1.3 | 3 | > 10 | – | – | – | 100 | 93.4 | 92.1 | 94.7 | 75.9 | 99.4 | 103 | 106 | 91.1 | 71 | 101 | 103 | 96.3 | 102 | 67.6 | 91.9 | 99.6 | 104 | 90.3 | 65.6 | 3.3 | 98.5 | 98.6 | 102 | 88.1 | 65.8 |
| NCC1OC(C23CC4CC(CC(C4)C2)C3)Cc2c1ccc(O)c2O (stereo not drawn) | 2 | 4 | 0 | 4 | – | – | > 10 | 3.26 | 94 | 97.3 | 96 | 100 | 58.8 | 114 | 86.9 | 94.3 | 85.1 | 54.4 | 102 | 100 | 99 | 94.9 | 92.5 | 101 | 95.9 | 103 | 101 | 26.5 | 2.6 | 106 | 98.1 | 100 | 94.2 | 65.3 |
| Cn1ncc(Cl)c1-c1cc(C(=O)N[C@H](CN)Cc2cccc(F)c2)sc1Cl | 0 | 0 | 0 | 0 | > 10 | > 10 | > 10 | > 10 | 91.8 | 101 | 91.5 | 93.6 | 100 | 83.6 | 85.6 | 95.3 | 79.7 | 71 | 97.2 | 95.6 | 97.9 | 94.1 | 89.2 | 86.8 | 101 | 96.7 | 93.8 | 84.7 | 3.3 | 98 | 97.6 | 104 | 89.7 | 63.6 |
| COc1cc(/C=C/c2ccc(OC)cc2OC)cc(OC)c1 [TMS] | 5 | 4.2 | 2.4 | 4.3 | 2.08 | – | – | 1.94 | 93.6 | 95.5 | 94.7 | 91.3 | 35 | 86.4 | 97.6 | 81.6 | 92.4 | 55.5 | 98.8 | 107 | 94.1 | 101 | 52.5 | 98.7 | 94.7 | 96.1 | 91.5 | 46.2 | 1.4 | 97 | 99.6 | 92.6 | 106 | 62.8 |
| CCN1C(=O)NC(c2ccccc2)C1=O (stereo not drawn) [ethotoin] | 0 | – | 0 | 0 | – | – | – | – | – | – | – | – | – | – | – | – | – | – | – | – | – | – | – | – | – | – | – | – | – | – | – | – | – | – |
| C[C@H](/C=C/[C@H](C)C(C)(C)O)[C@H]1CC[C@H]2/C(=C/C=C3C[C@@H](O)C[C@H](O)C3)CCC[C@]12C [paricalcitol] | 0 | 0.1 | 0 | 0.9 | > 10 | > 10 | > 10 | > 10 | 96.6 | 97.3 | 95.4 | 103 | 101 | 102 | 101 | 98.8 | 89.8 | 96.5 | 107 | 98.1 | 98.9 | 97.6 | 99.3 | 101 | 99.2 | 99.3 | 95.6 | 82.1 | – | – | – | – | – | – |
| Cn1cccc1/C=C1\C(=O)NC(=O)c2ccccc21 | 0.9 | 1.8 | 3.7 | 6.5 | – | – | 3.28 | 1.84 | 104 | 108 | 104 | 106 | 71.4 | 106 | 103 | 108 | 109 | 55.2 | 110 | 105 | 106 | 101 | 29.8 | 83.2 | 103 | 72.1 | 83 | 21.2 | 2.7 | 98.6 | 97.5 | 102 | 91 | 69 |
| CCOC(=O)c1ccc(N2NC(=O)/C(=C/c3ccc([N+](=O)[O-])o3)C2=O)cc1 [PYR-41] | 0.1 | 2.6 | 1.8 | 0.1 | > 10 | – | > 10 | > 10 | 103 | 103 | 99.2 | 101 | 85.7 | 96 | 100 | 95.1 | 85 | 71.2 | 93.5 | 98.3 | 101 | 93.4 | 75.5 | 112 | 99.7 | 94.4 | 105 | 84.9 | 5.7 | 85.5 | 101 | 92.2 | 71.6 | 62 |
| COc1cc2c(cc1O)CC[C@@H]1[C@@H]2CC[C@]2(C)[C@@H](O)CC[C@@H]12 [2-methoxyestradiol] | 4.3 | 4.9 | 5.9 | 2.8 | 2.5 | – | 1.15 | 3.99 | 99.6 | 97.8 | 98.9 | 94.8 | 36.2 | 99.1 | 105 | 101 | 77.4 | 58.1 | 96.4 | 95.1 | 102 | 77.8 | 46.5 | 96.1 | 99.9 | 91.7 | 115 | 33.8 | 2.1 | 103 | 107 | 106 | 98.9 | 60.2 |
| C/C(=C\c1csc(C)n1)[C@@H]1C[C@@H]2O[C@]2(C)CCC[C@H](C)[C@H](O)[C@@H](C)C(=O)C(C)(C)[C@@H](O)CC(=O)N1 [ixabepilone] | 9.1 | 13.6 | 10.9 | 21.7 | 0.493 | 0.0664 | 0.556 | 0.0721 | 108 | 108 | 84.6 | 60.2 | 36.5 | 101 | 98.4 | 65.2 | 48.8 | 49.2 | 99.7 | 99.3 | 101 | 41.3 | 28 | 107 | 103 | 43.6 | 33.6 | 17.3 | 7.2 | 108 | 108 | 88.1 | 67.2 | 60.8 |
| CC1CCc2cc(F)cc3c(=O)c(C(=O)O)cn1c23 (stereo not drawn) [flumequine] | 0 | 0 | 0 | 0 | > 10 | > 10 | > 10 | > 10 | 103 | 94.7 | 107 | 108 | 92.1 | 91 | 75.1 | 96.5 | 112 | 121 | 98.1 | 98.3 | 102 | 97.9 | 104 | 95.3 | 97.7 | 89.4 | 96.4 | 92.7 | – | – | – | – | – | – |
| C/C(=N\Nc1nnc2c(n1)[nH]c1c(C)cccc12)c1ccccn1 [VLX600] | 14.6 ± 2.2 | 14.8 ± 0.35 | 12.2 ± 1.3 | 14.85 ± 0.071 | 0.525 | 0.32 | 0.418 | 0.319 | 101 ± 6 | 100.5 ± 0.49 | 104 ± 2.5 | 21.6 ± 15 | 4.95 ± 1.2 | 95.5 ± 6 | 101 ± 1.6 | 98.1 ± 4.1 | 20.2 ± 5.8 | 21 ± 2.1 | 100 ± 3.2 | 99.6 ± 9.3 | 98.9 | 34.3 ± 6.7 | 27 ± 0.99 | 102 ± 2.3 | 107 ± 10 | 103 ± 11 | 17.9 ± 6 | 23.6 ± 1.6 | – | – | – | – | – | – |
